{
  "source": "patent US8455484B2",
  "about": "“Selected inhibitors of protein tyrosine kinase activity” (MethylGene Inc., priority 2010, dated 2013)",
  "key": {"[1]": {"biological_target": "T1, VEGFR2 (KDR) (Homo sapiens, UniProt P35968)", "T1 construct": "made in house; host or cells: Sf9 cells (Spodoptera frugiperda), baculovirus", "T1 sequence (P35968 806-1356)": "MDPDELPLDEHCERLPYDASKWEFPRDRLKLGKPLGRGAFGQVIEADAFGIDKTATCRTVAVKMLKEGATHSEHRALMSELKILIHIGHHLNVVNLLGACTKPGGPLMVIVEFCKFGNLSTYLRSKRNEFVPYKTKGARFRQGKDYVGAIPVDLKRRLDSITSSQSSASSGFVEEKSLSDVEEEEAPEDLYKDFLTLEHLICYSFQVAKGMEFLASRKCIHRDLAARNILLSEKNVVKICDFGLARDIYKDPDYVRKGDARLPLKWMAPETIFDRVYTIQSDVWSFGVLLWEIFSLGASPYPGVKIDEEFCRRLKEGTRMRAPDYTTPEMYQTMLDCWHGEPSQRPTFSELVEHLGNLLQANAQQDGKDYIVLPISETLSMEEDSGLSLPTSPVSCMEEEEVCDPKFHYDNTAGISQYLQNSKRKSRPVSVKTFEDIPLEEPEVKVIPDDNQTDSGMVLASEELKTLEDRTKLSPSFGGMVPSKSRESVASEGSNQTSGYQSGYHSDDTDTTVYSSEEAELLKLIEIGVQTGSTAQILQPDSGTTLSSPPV", "assay": "In vitro receptor tyrosine kinase assay (VEGF receptor KDR), DELFIA", "format": "biochemical", "conditions": "recombinant GST-VEGFR2 catalytic domain, ATP 0.6 uM, enzyme 5 nM; read-out: VEGFR IC50", "excerpt": "This test measures the ability of compounds to inhibit the enzymatic activity of recombinant human VEGF receptor enzymatic activity.\nA 1.6-kb cDNA corresponding to the catalytic domain of VEGFR2 (KDR) (Genbank accession number AF035121 amino acid 806 to 1356) is cloned into the Pst I site of the pDEST20 Gateway vector (Invitrogen) for the production of a GST-tagged version of that enzyme. This constuct is used to generate recombinant baculovirus using the Bac-to-Bac™ system according to the manucfacturer's instructions (Invitrogen).\nThe GST-VEGFR2806-1356 protein is expressed in Sf9 cells (Spodoptera frugiperda) upon infection with recombinant baculovirus construct. Briefly, Sf9 cells grown in suspension and maintained in serum-free medium (Sf900 II supplemented with gentamycin) at a cell density of about 2×10^6 cells/ml are infected with the above-mentioned viruses at a multiplicity of infection (MOI) of 0.1 during 72 hours at 27° C. with agitation at 120 rpm on a rotary shaker. Infected cells are harvested by centrifugation at 398 g for 15 min. Cell pellets are frozen at −80° C. until purification is performed.\nAll steps described in cell extraction and purification are performed at 4° C. Frozen Sf9 cell pellets infected with the GST-VEGFR2806-1356 recombinant baculovirus are thawed and gently resuspended in Buffer A (PBS pH 7.3 supplemented with 1 μg/ml pepstatin, 2 μg/ml Aprotinin and leupeptin, 50 μg/ml PMSF, 50 μg/ml TLCK and 10 μM E64 and 0.5 mM DTT) using 3 ml of buffer per gram of cells. Suspension is Dounce homogenized and 1% Triton X-100 is added to the homogenate after which it is centrifuged at 22500 g, 30 min., 4° C. The supernatant (cell extract) is used as starting material for purification of GST-VEGFR2806-1356.\nThe supernatant is loaded onto a GST-agarose column (Sigma) equilibrated with PBS pH 7.3. Following a four column volume (CV) wash with PBS pH 7.3+1% Triton X-100 and 4 CV wash with buffer B (50 mM Tris pH 8.0, 20% glycerol and 100 mM NaCl), bound proteins are step eluted with 5 CV of buffer B supplemented with 5 mM DTT and 15 mM glutathion. GST-VEGFR2806-1356 enriched fractions from this chromatography step are pooled based on U.V. trace i.e. fractions with high O.D.280. Final GST-VEGFR2806-1356 protein preparations concentrations are about 0.7 mg/ml with purity approximating 70%. Purified GST-VEGFR2806-1356 protein stocks are aliquoted and frozen at −80° C. prior to use in enzymatic assay.\nInhibition of VEGFR/KDR is measured in a DELFIA™ assay (Perkin Elmer). The substrate poly(Glu4, Tyr) is immobilized onto black high-binding polystyrene 96-well plates. The coated plates are washed and stored at 4° C. During the assay, the enzyme is pre-incubated with inhibitor and Mg-ATP on ice in polypropylene 96-well plates for 4 minutes, and then transferred to the coated plates. The subsequent kinase reaction takes place at 30° C. for 10-30 minutes. ATP concentrations in the assay are 0.6 uM for VEGFR/KDR (2× the Km). Enzyme concentration is 5 nM. After incubation, the kinase reactions are quenched with EDTA and the plates are washed. Phosphorylated product is detected by incubation with Europium-labeled anti-phosphotyrosine MoAb. After washing the plates, bound MoAb is detected by time-resolved fluorescence in a Gemini SpectraMax reader (Molecular Devices). Compounds are evaluated over a range of concentrations, and IC50 values (concentration of compounds giving 50% inhibition of enzymatic activity) are determined."}, "[2]": {"tested_on": "VEGF-induced retinal vascular permeability", "assay": "VEGF-induced retinal vascular permeability in rabbits", "format": "in vivo, Dutch rabbits", "conditions": "intravitreal injection, human VEGF165 500 ng, 30 min after fluorescein injection, vs vehicle-treated group", "protocol": "This test measured the capacity of compounds to inhibit VEGF-induced retinal vascular permeability. Vascular permeability is the cause of severe vision loss in patients suffering from age-related macular degeneration (AMD). Female Dutch rabbits (˜2 kg; Kitayama LABES CO., LTD, Nagano, Japan) were anesthetized with pentobarbital and topically with 0.4% oxybuprocaine hydrochloride. Test articles or vehicle were injected into vitreous cavity after the dilation of the pupils with 0.5% tropicamide eye drop. Recombinant human VEGF165 (500 ng; Sigma-Aldrich Co., St Louis, Mo.) was injected intravitreously 48 hr prior to the measurement of vitreous fluorescein concentration. Rabbits were anesthetized with pentobarbital and sequentially injected sodium fluorescein (2 mg/kg) via the ear vein. Pupils were dilated with 0.5% tropicamide eye drop, and ocular fluorescein levels were measured using the FM-2 Fluorotron Master (Ocumetrics, Mountain View, Calif.) 30 min after fluorescein injection. The fluorescein concentrations in vitreous were obtained at data points that are 0.25 mm apart from posterior-end along an optical axis. Vitreous fluorescence concentration was considered fluorescein leakage from retinal vasculature. The average fluorescence peaks of the test article treated groups were compared with that of the vehicle-treated group."}, "[3]": {"tested_on": "CNV progression", "assay": "In vivo choroidal neovascularization (CNV) model", "parameters": "species or system Brown-Norway rats", "conditions": "injection into right eye on Day 3, CNV area on Day 10, vs vehicle-treated group", "excerpt": "This test measures the capacity of compounds to inhibit CNV progression. CNV is the main cause of severe vision loss in patients suffering from age-related macular degeneration (AMD).\nMale Brown-Norway rats (Japan Clea Co., Ltd.) were used in these studies.\nRats were anesthetized by intraperitoneal injection of pentobarbital, and the right pupil was dilated with 0.5% tropicamide and 0.5% phenylephrine hydrochloride. The right eye received 6 laser burns between retinal vessels using a slit lamp delivery system of Green laser Photocoagulator (Nidex Inc., Japan), and microscope slide glass with Heaton™ (AMO Inc) used as a contact lens. The laser power was 100 or 200 mW for 0.1 second and spot diameter was 100 μm. At the time of laser burn, bubble production was observed, which is an indication of rupture of Bruch's membrane which is important for CNV generation.\nRats were divided into the groups based on their body weight using SAS software (SAS institute Japan, R8.1) after laser irradiation (Day 0). After animals were anesthetized, and the right pupil dilated (as above mentioned), the right eye of the animal received the compound or vehicle by an injection (10 μL/eye) at doses of 10 or 3 nmol/eye on Day 3. The compounds were dissolved or suspended in CBS, PBS, or other adequate vehicles before injection.\nOn Day 10, the animals were anesthetized with ether, and high molecular weight fluorescein isothiocyanate (FITC)-dextran (SIGMA, 2×10^6 MW) was injected via a tail vein (20 mg/rat). About 30 min after FITC-dextran injection, animals were euthanized by ether or carbon dioxide, and the eyes were removed and fixed with 10% formaline neutral buffer solution. After over 1 hour of fixation, RPE-choroid-sclera flat mounts were obtained by removing cornea, lens and retina from the eyeballs. The flat mounts were mounted in 50% glycerol on a microscope slide, and the portion burned by laser was photographed using a fluorescence microscope (Nikon Corporation, excitation filter:465-495 nm, absorption filter:515-555 nm). The CNV area was obtained by measurement of hyper-fluorescence area observed on the photograph using Scion image.\nThe average CNV area of 6 burns was used as an individual value of CNV area, and the average CNV area of compound treated group was compared with that of the vehicle-treated group."}},
  "data": [
    {"compound": "COCCN(Cc1cnc(-c2cc3nccc(Oc4ccc(NC(=O)NC5CC5)cc4F)c3s2)n1C)C(=O)CO", "note": "[Compound 209, N-((2-(7-(4-(3-cyclopropylureido)-2-fluorophenoxy)thieno[3,2-b]pyridin-2-yl)-1-methyl-1H-imidazol-5-yl)methyl)-2-hydroxy-N-(2-methoxyethyl)acetamide]", "values": [
      {"measurement": "IC50", "setting": "[1]", "value": "< 50", "unit": "nM"}
    ]},
    {"compound": "COCCN(Cc1ccc(-c2cc3nccc(Oc4ccc(NC(=O)NC5CC5)c(F)c4F)c3s2)nc1)C(C)=O", "note": "[Compound 26, N-((6-(7-(4-(3-cyclopropylureido)-2,3-difluorophenoxy)thieno[3,2-b]pyridin-2-yl)-pyridin-3-yl)methyl)-N-(2-methoxyethyl)acetamide]", "values": [
      {"measurement": "inhibition of the leakage of fluorescein (vitreous fluorescein concentration)", "setting": "[2]", "value": "significant inhibition"},
      {"measurement": "IC50", "setting": "[1]", "value": "< 50", "unit": "nM"},
      {"measurement": "Inhibition of CNV progression", "setting": "[3]; 3 nmol/eye", "value": "B (≧40% to <60% inhibition)"},
      {"measurement": "Inhibition of CNV progression", "setting": "[3]; 10 nmol/eye", "value": "A (greater than or equal to 60% inhibition)"}
    ]},
    {"compound": "O=C(Nc1ccc(Oc2ccnc3cc(-c4cn(CCN5CCOCC5)cn4)sc23)c(F)c1)NC1CC1", "note": "[Compound 265]", "values": [
      {"measurement": "IC50", "setting": "[1]", "value": "< 50", "unit": "nM"}
    ]},
    {"compound": "CS(=O)(=O)CCNCc1ccc(-c2cc3nccc(Oc4ccc(NC(=O)NC5CC5)cc4F)c3s2)nc1", "note": "[Compound 100, 1-cyclopropyl-3-(3-fluoro-4-(2-(5-((2-(methylsulfonyl)ethylamino)methyl)pyridin-2-yl)thieno[3,2-b]pyridin-7-yloxy)phenyl)urea]", "values": [
      {"measurement": "IC50", "setting": "[1]", "value": "< 50", "unit": "nM"}
    ]},
    {"compound": "O=C(Nc1ccc(Oc2ccnc3cc(-c4ccc(CN5CCN(C(=O)CO)CC5)cn4)sc23)c(F)c1)NC1CC1", "note": "[Compound 74, 1-cyclopropyl-3-(3-fluoro-4-(2-(5-((4-(2-hydroxyacetyl)piperazin-1-yl)methyl)pyridin-2-yl)thieno[3,2-b]pyridin-7-yloxy)phenyl)urea]", "values": [
      {"measurement": "inhibition of the leakage of fluorescein (vitreous fluorescein concentration)", "setting": "[2]", "value": "significant inhibition"},
      {"measurement": "IC50", "setting": "[1]", "value": "< 50", "unit": "nM"},
      {"measurement": "Inhibition of CNV progression", "setting": "[3]; 3 nmol/eye", "value": "A (greater than or equal to 60% inhibition)"},
      {"measurement": "Inhibition of CNV progression", "setting": "[3]; 10 nmol/eye", "value": "A (greater than or equal to 60% inhibition)"}
    ]},
    {"compound": "CC(C)[C@H](N)C(=O)OCC(=O)N1CCN(Cc2ccc(-c3cc4nccc(Oc5ccc(NC(=O)NC6CC6)cc5F)c4s3)nc2)CC1", "note": "[Compound 80, (S)-2-(4-((6-(7-(4-(3-cyclopropylureido)-2-fluorophenoxy)thieno[3,2-b]pyridin-2-yl)pyridin-3-yl)methyl)piperazin-1-yl)-2-oxoethyl 2-amino-3-methylbutanoate]", "values": [
      {"measurement": "IC50", "setting": "[1]", "value": "< 50", "unit": "nM"}
    ]},
    {"compound": "CN1CCN(C2CCN(C(=O)c3ccc(-c4cc5nccc(Oc6ccc(NC(=O)NC7CC7)cc6F)c5s4)nc3)CC2)CC1", "note": "[Compound 234, 1-Cyclopropyl-3-(3-fluoro-4-(2-(5-(4-(4-methylpiperazin-1-yl)piperidine-1-carbonyl)pyridin-2-yl)thieno[3,2-b]pyridin-7-yloxy)phenyl)urea]", "values": [
      {"measurement": "IC50", "setting": "[1]", "value": "< 50", "unit": "nM"},
      {"measurement": "Inhibition of CNV progression", "setting": "[3]; 3 nmol/eye", "value": "B (≧40% to <60% inhibition)"}
    ]},
    {"compound": "CN(CCO)CCn1cc(-c2cc3nccc(Oc4ccc(NC(=O)NC5CC5)cc4F)c3s2)cn1", "note": "[Compound 151, 1-cyclopropyl-3-(3-fluoro-4-(2-(1-(2-((2-hydroxyethyl)(methyl)amino)ethyl)-1H-pyrazol-4-yl)thieno[3,2-b]pyridin-7-yloxy)phenyl)urea]", "values": [
      {"measurement": "IC50", "setting": "[1]", "value": "< 50", "unit": "nM"}
    ]},
    {"compound": "CCNC(=O)N(CCOC)Cc1ccc(-c2cc3nccc(Oc4ccc(NC(=O)NC5CC5)cc4F)c3s2)nc1", "note": "[Compound 2, N-[3-((6-(7-(4-(3-cyclopropylureido)-2-fluorophenoxy)thieno[3,2-b]pyridin-2-yl)pyridin-3-yl)methyl)]-N-(1-ethyl)-N-[3-(2-methoxyethyl)]urea]", "values": [
      {"measurement": "IC50", "setting": "[1]", "value": "< 50", "unit": "nM"},
      {"measurement": "Inhibition of CNV progression", "setting": "[3]; 3 nmol/eye", "value": "B (≧40% to <60% inhibition)"},
      {"measurement": "Inhibition of CNV progression", "setting": "[3]; 10 nmol/eye", "value": "A (greater than or equal to 60% inhibition)"}
    ]},
    {"compound": "1-((2-(7-(4-Isopropylaminocarbonylamino-2-fluorophenoxy)thieno[3,2-b]pyrid methyl-1H-imidazol-5-yl)methyl)-3-isopropyl-1-(2-methoxyethyl)urea [Compound 192]", "values": [
      {"measurement": "IC50", "setting": "[1]", "value": "50 to 100", "unit": "nM"},
      {"measurement": "Inhibition of CNV progression", "setting": "[3]; 3 nmol/eye", "value": "B (≧40% to <60% inhibition)"}
    ]},
    {"compound": "COCCN(C=O)Cc1ccc(-c2cc3nccc(Oc4ccc(NC(=O)NC5CC5)cc4F)c3s2)nc1", "note": "[Compound 6, N-((6-(7-(4-(3-cyclopropylureido)-2-fluorophenoxy)thieno[3,2-b]pyridin-2-yl)pyridin-3-yl)methyl)-N-(2-methoxyethyl)formamide]", "values": [
      {"measurement": "IC50", "setting": "[1]", "value": "< 50", "unit": "nM"},
      {"measurement": "Inhibition of CNV progression", "setting": "[3]; 3 nmol/eye", "value": "B (≧40% to <60% inhibition)"},
      {"measurement": "Inhibition of CNV progression", "setting": "[3]; 10 nmol/eye", "value": "A (greater than or equal to 60% inhibition)"}
    ]}
  ]
}
